Key:
Assay type in all cases: in vivo
[1] = tested on: barnyardgrass (Echinochloa crus-galli); assay: Test A preemergence soil spray, visual injury rating 0-100; conditions: 10 days
Summary of the method: (§1)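 Plants in a loam and sand soil blend were treated with each test chemical, in a non-phytotoxic solvent system including surfactant, either sprayed on seeded soil before emergence or applied after emergence at the one- to two-leaf stage. Ten days later in the greenhouse, plants were compared with untreated controls and visually rated from 0 (no effect) to 100 (complete control).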

[2] = tested on: blackgrass (Alopecurus myosuroides); assay: as above; conditions: 10 days
Summary of the method: as §1

[3] = tested on: corn (Zea mays); assay: as above; conditions: 10 days
Summary of the method: as §1

[4] = tested on: green foxtail (Setaria viridis); assay: as above; conditions: 10 days
Summary of the method: as §1

[5] = tested on: kochia (Bassia scoparia); assay: as above; conditions: 10 days
Summary of the method: as §1

[6] = tested on: oat, wild (wild oat, Avena fatua); assay: as above; conditions: 10 days
Summary of the method: as §1

[7] = tested on: palmer (palmer amaranth, palmer pigweed, Amaranthus palmeri); assay: as above; conditions: 10 days
Summary of the method: as §1

[8] = tested on: ragweed (common ragweed, Ambrosia artemisiifolia); assay: as above; conditions: 10 days
Summary of the method: as §1

[9] = tested on: ryegrass, Italian (italian ryegrass, Lolium multiflorum); assay: as above; conditions: 10 days
Summary of the method: as §1

[10] = tested on: soybean (Glycine max); assay: as above; conditions: 10 days
Summary of the method: as §1

[11] = tested on: wheat (Triticum aestivum); assay: as above; conditions: 10 days
Summary of the method: as §1

[12] = tested on: barnyardgrass (Echinochloa crus-galli); assay: Test A postemergence application, visual injury rating 0-100
Summary of the method: as §1

[13] = tested on: blackgrass (Alopecurus myosuroides); assay: as above
Summary of the method: as §1

[14] = tested on: corn (Zea mays); assay: as above
Summary of the method: as §1

[15] = tested on: galium (catchweed bedstraw, Galium aparine); assay: as above
Summary of the method: as §1

[16] = tested on: green foxtail (Setaria viridis); assay: as above
Summary of the method: as §1

[17] = tested on: horseweed (Erigeron canadensis); assay: as above
Summary of the method: as §1

[18] = tested on: kochia (Bassia scoparia); assay: as above
Summary of the method: as §1

[19] = tested on: oat, wild (wild oat, Avena fatua); assay: as above
Summary of the method: as §1

[20] = tested on: palmer (palmer amaranth, palmer pigweed, Amaranthus palmeri); assay: as above
Summary of the method: as §1

[21] = tested on: ragweed (common ragweed, Ambrosia artemisiifolia); assay: as above
Summary of the method: as §1

[22] = tested on: ryegrass, Italian (italian ryegrass, Lolium multiflorum); assay: as above
Summary of the method: as §1

[23] = tested on: soybean (Glycine max); assay: as above
Summary of the method: as §1

[24] = tested on: wheat (Triticum aestivum); assay: as above
Summary of the method: as §1

[25] = tested on: barnyardgrass (Echinochloa crusgalli); assay: Test B flooded paddy test, visual plant response rating 0-100; conditions: 250 g ai/ha, Flood, applied to paddy water, evaluated after 13 days
Summary of the method: (§2)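 Paddy-water application: test compounds went directly into water flooded 3 cm above the soil surface, with plants at 2 leaves. After a 13-day greenhouse period, responses were judged by eye relative to controls; a dash marks an untested entry.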

[26] = tested on: ducksalad (Heteranthera limosa); assay: as above; conditions: 250 g ai/ha, Flood, applied to paddy water, evaluated after 13 days
Summary of the method: as §2

[27] = tested on: rice (Oryza sativa); assay: as above; conditions: 250 g ai/ha, Flood, applied to paddy water, evaluated after 13 days
Summary of the method: as §2

[28] = tested on: sedge, umbrella (small-flower umbrella sedge, Cyperus difformis); assay: as above; conditions: 250 g ai/ha, Flood, applied to paddy water, evaluated after 13 days
Summary of the method: as §2

[29] = 62 g ai/ha, 0 = no effect, 100 = complete control
[30] = 62 g ai/ha, postemergence, 10 days, 0 = no effect, 100 = complete control
[31] = Postemergence, 16 g ai/ha, greenhouse 10 days, 0 no effect, 100 complete control

With `CC1(C(=O)NC2CC=C(C(=O)NS(=O)(=O)c3ccccc3)C2)CN(c2cc(F)cc(F)c2)C(=O)O1` (racemic) [Compound 104] the “Barnyardgrass plant response rating” value ([1]; 16 g ai/ha, 0 to 100 scale) was 0, the “Barnyardgrass plant response rating (0-100)” value [1, 29] was 20 and the “Blackgrass plant response rating” value ([2]; 16 g ai/ha, 0 to 100 scale) was 0. For the same compound, the “Blackgrass plant response rating (0-100)” value [2, 29] was 0, the “Corn plant response rating” value ([3]; 16 g ai/ha, 0 to 100 scale) was 0 and the “Corn plant response rating (0-100)” value [3, 29] was 0. For the same compound, the “Foxtail, Green plant response rating” value ([4]; 16 g ai/ha, 0 to 100 scale) was 0, the “Foxtail, Green plant response rating (0-100)” value [4, 29] was 30 and the “Kochia plant response rating” value ([5]; 16 g ai/ha, 0 to 100 scale) was 0. For the same compound, the “Kochia plant response rating (0-100)” value [5, 29] was 50, the “Oat, Wild plant response rating” value ([6]; 16 g ai/ha, 0 to 100 scale) was 0 and the “Oat, Wild plant response rating (0-100)” value [6, 29] was 0. The “Pigweed, Palmer plant response rating” value ([7]; 16 g ai/ha, 0 to 100 scale) was 0, the “Pigweed, Palmer plant response rating (0-100)” value [7, 29] was 30 and the “Ragweed plant response rating” value ([8]; 16 g ai/ha, 0 to 100 scale) was 20. For the same compound, the “Ragweed plant response rating (0-100)” value [8, 29] was 20, the “Ryegrass, Italian plant response rating” value ([9]; 16 g ai/ha, 0 to 100 scale) was 0 and the “Ryegrass, Italian plant response rating (0-100)” value [9, 29] was 20. For the same compound, the “Soybean plant response rating” value ([10]; 16 g ai/ha, 0 to 100 scale) was 0, the “Soybean plant response rating (0-100)” value [10, 29] was 0 and the “Wheat plant response rating” value ([11]; 16 g ai/ha, 0 to 100 scale) was 0. The “Wheat plant response rating (0-100)” value [11, 29] was 20, the “Barnyardgrass plant response rating (0-100)” value [12, 30] was 100 and the “Barnyardgrass plant response rating (0 to 100 scale)” value [12, 31] was 50. The “Blackgrass plant response rating (0-100)” value [13, 30] was 70, the “Blackgrass plant response rating (0 to 100 scale)” value [13, 31] was 0 and the “Corn plant response rating (0-100)” value [14, 30] was 90. The “Corn plant response rating (0 to 100 scale)” value [14, 31] was 0, the “Galium plant response rating (0-100)” value [15, 30] was 70 and the “Galium plant response rating (0 to 100 scale)” value [15, 31] was 30. The “Foxtail, Green plant response rating (0-100)” value [16, 30] was 90, the “Foxtail, Green plant response rating (0 to 100 scale)” value [16, 31] was 40 and the “Horseweed plant response rating (0-100)” value [17, 30] was 30. For the same compound, the “Horseweed plant response rating (0 to 100 scale)” value [17, 31] was 0, the “Kochia plant response rating (0-100)” value [18, 30] was 90 and the “Kochia plant response rating (0 to 100 scale)” value [18, 31] was 30. The “Oat, Wild plant response rating (0-100)” value [19, 30] was 30, the “Oat, Wild plant response rating (0 to 100 scale)” value [19, 31] was 0 and the “Pigweed, Palmer plant response rating (0-100)” value [20, 30] was 90. For the same compound, the “Pigweed, Palmer plant response rating (0 to 100 scale)” value [20, 31] was 80, the “Ragweed plant response rating (0-100)” value [21, 30] was 60 and the “Ragweed plant response rating (0 to 100 scale)” value [21, 31] was 40. The “Ryegrass, Italian plant response rating (0-100)” value [22, 30] was 70, the “Ryegrass, Italian plant response rating (0 to 100 scale)” value [22, 31] was 50 and the “Soybean plant response rating (0-100)” value [23, 30] was 60. The “Soybean plant response rating (0 to 100 scale)” value [23, 31] was 20, the “Wheat plant response rating (0-100)” value [24, 30] was 90 and the “Wheat plant response rating (0 to 100 scale)” value [24, 31] was 30. For the same compound, the “Plant response rating, Barnyardgrass (0 to 100 scale, 0 is no effect and 100 is complete control)” value [25] was 0, the “Plant response rating, Ducksalad (0 to 100 scale, 0 is no effect and 100 is complete control)” value [26] was 0 and the “Plant response rating, Rice (0 to 100 scale, 0 is no effect and 100 is complete control)” value [27] was 0. For the same compound, the “Plant response rating, Sedge, Umbrella (0 to 100 scale, 0 is no effect and 100 is complete control)” value [28] was 0.
